From patent US6410567B1, “Pesticide containing a photosensitizer and an attractant” (priority 1996, dated 2002)

Experiments:
Type in all cases: in vivo
[1] = system: Ceratitis capitata; test: Comparative studies on the photoinsecticidal activity of different sensitizing compounds (percent survival after irradiation); conditions: for Percent survival, 0 h after 1 h irradiation / Percent survival, 1 h after 1 h irradiation / Percent survival, 24 h after 1 h irradiation: 6 μmoles/ml photosensitizer for 24 h, 1220 μE s^−1 m^−2 for 1 h; for Percent survival, 0 h after 1 h irradiation: 0 h after irradiation; for Percent survival, 1 h after 1 h irradiation: 1 h after irradiation; for Percent survival, 24 h after 1 h irradiation: 24 h after irradiation; for Percent survival, pre-irradiation: Ceratitis capitata fed 24 h with sucrose solution containing 6 μmoles/ml photosensitizer, before irradiation
Experimental: 31. Comparative Studies on the Photosecticidal Activity of Different Sensitizing Compounds
Target: Ceratitis capitata
Light source: Sunlight-simulating halogen lamp
Light intensity (fluence rate): 1220 μE s^−1 m^−2
Groups of at least 20 flies were fed for 24 h with 3 ml of an aqueous solution containing sucrose (attractive) and 6 μmoles/ml of the photosensitizer. […]

[2] = system: flies; test: Mortality investigations: control flies given only HP without irradiation; conditions: flies fed HP in the food, no irradiation
Experimental: An appropriate number of flies (25 for each experiment) was removed from a population and starved for 48 hours. Then, depending on the individual experimental conditions, the flies were provided with food, the control animals being fed with sugar and water while the test group received hematoporphyrin (HP; shown below) which had been added to the food. The animals were then used for the individual experiments; for example, HP was extracted or the flies were irradiated, etc.
3. Mortality Investigations
Control flies and flies fed with HP were irradiated with light sources (HQIT 400W/D OSRAM) whose emitted light is similar to sunlight. The number of survivors was plotted against the irradiation time. The HP concentration, the flux rate and the exposure time (or the total light dose) were investigated as parameters in respect of their effect on the mortality.

[3] = system: flies; test: Effect of the attractant buminal on the intake of HP (extraction, spectrofluorimetric analysis); conditions: HP 8 μmol/ml offered for 6 h, in combination with buminal vs buminal-free food
Experimental: 19. Effect of the Attractant Buminal on the Intake and Action of HP
Groups of 10 flies each were fed for two days with an aqueous solution comprising sucrose and were then fed with compositions which contained the following ingredients:
1. HP (8 μmol/ml)+buminal (1 ml)
3. HP (8 μmol/ml)+1 ml sucrose (1.4 mg/ml)
4. HP (8 μmol/ml)+buminal (0.5 ml)+sucrose (0.5 ml)
The animals were able to take in the compositions indicated above for 6 hours. Thereafter the flies were subjected to an extraction in order to extract the HP taken in, which was quantified by a spectrofluorimetric analysis. From these experiments it is clearly evident that buminal is capable of sharply increasing the intake of HP by the flies, the flies taking in about four times the quantity of photosensitizer when the latter is offered in combination with buminal, in comparison to the buminal-free food. The addition of buminal therefore strengthens the action of HP.

Compound	Percent survival, 0 h after 1 h irradiation [1] [%]	Percent survival, 1 h after 1 h irradiation [1] [%]	Percent survival, 24 h after 1 h irradiation [1] [%]	Percent survival, pre-irradiation [1] [%]	Mortality or toxic effect without irradiation [2]	Quantity of photosensitizer taken in with buminal in comparison to the buminal-free food [3]
COc1ccc(NC(N)=S)cc1 [VI, 1-(4-methoxyphenyl)-2-thiourea]	100	95	90	100		
Nc1c(S(=O)(=O)[O-])ccc2c1C(=O)c1ccccc1C2=O.[Na+] [V, 1-amino-anthraquinone-2-sulphonate (sodium salt)]	100	77	60	100		
CC1=C(CCC(=O)O)c2cc3[nH]c(cc4nc(cc5[nH]c(cc1n2)c(C)c5C(C)O)C(C)=C4C(C)O)c(C)c3CCC(=O)O (stereo not drawn) [I, hematoporphyrin]	60	25	5	100	In none of the experiments was mortality or a toxic effect observed	about four
O=C([O-])c1cccc2sc3ccccc3c(=O)c12.[Na+] [VII, thioxanthene-9-one-1-carbonate (sodium salt)]	100	100	90	100		
C[n+]1ccc(-c2c3nc(c(-c4cc[n+](C)cc4)c4ccc([nH]4)c(-c4cc[n+](C)cc4)c4nc(c(-c5ccccc5)c5ccc2[nH]5)C=C4)C=C3)cc1 [II, meso-tri(4N-methyl-pyridyl)-monophenyl-porphine]	10	0	0	100		
Al(III)-phtalocyanine tetrasulphonate (sodium salt)	100	95	90	100		
O=C1OC2(c3cc(I)c(O)c(I)c3Oc3c2cc(I)c(O)c3I)c2c(Cl)c(Cl)c(Cl)c(Cl)c21 [IV, Rose bengal (tetrachloro, tetraiodo-fluorescein)]	85	58	30	100		
